Data taken from patent publication US11807835B2, “Detergent compositions containing a stabilized enzyme by phosphonates” (ECOLAB USA INC., priority 2016, dated 2023).

Key:
Format in all cases: biochemical
[1] = test system: enzyme (protease, amylase, lipase); test: Overall effects of phosphonates on enzyme activity (Table 3)
Experimental: (§1) The enzyme activities in the detergents with different phosphonate levels were tested at 4000 ppm in 5 grains per gallon (GPG) water at 120° F. with various time points collected up to 4 hours, after a use solution was generated from the detergent composition. During the tests, the samples at different time points were collected and immediately frozen in an acetone/dry ice bath and stored in −80° C. before the activity of the enzyme was evaluated. For the use of such an assay, t=0 min was the reference point for 100% enzyme activity.
(§2) Assays of enzyme activity in formulations (% retention) were conducted to simulate a presoak condition in a beaker using the chemistry, temperature, and pH conditions relevant to manual warewash or presoak applications. Enzyme activity is an indicator of the stability of the enzyme in the detergent, specifically in an aqueous use solution within a sump (which is under conditions of high pH, temperature and dilution).
The relative enzyme activities in a use solution of the tested detergent compositions containing a different phosphonate at different concentrations over a period time are listed in Table 4A-Table 4E, Table 5A-Table 5E, and Table 6A-Table 6F.

[2] = test system: amylase; test: Amylase activity retention in detergent use solution (4000 ppm, 5 GPG water; ethylidene substrate EPS, HEPES buffer pH 8.0); conditions: base formula
Experimental: as §1, §2
(§3) Enzyme activity under presoak or manual warewash conditions was traced quantitatively using a standard protease assay. Samples were prepared under bench top conditions, whereby the use solution from a detergent composition or detergent was obtained and maintained at a presoak or manual warewash temperature in a stirring water bath. After the time course for assessing enzyme stability is initiated, aliquots were taken at various time points and flash-frozen. A time=0 sample was prepared for each series by dissolving the detergent formulation at room temperature, mixing thoroughly, and flash freezing. Samples were thawed and diluted as necessary in an assay buffer usually for use in the protease assay. A glycine buffer at pH 9.0 is used here. The assay monitored the direct reaction of the protease on a small, commercially available peptidyl substrate, with liberation of the product providing correlation to the active enzyme content. The product was detected using a plate reader with an appreciable dynamic range (upper absorbance limit of the instrument >3.5). Enzyme activity levels were assessed relative to a calibration curve with average values for replicate tests used to map protease stability under presoak or manual warewash use conditions. Enzyme retention at each time point was calculated as the % enzyme activity relative to the time=0 sample.
(§4) The analysis by lipase and amylase assay was conducted similarly, except with a different substrate and buffers. For lipase activity, the substrate is p-nitrophenyl valerate, and for amylase, the substrate is an ethylidene substrate (EPS). The buffer used in lipase assay is TRIS (Tris(hydroxymethyl)aminomethane) buffer at pH 8.0, and in amylase assay HEPES (4-(2-hydroxyethyl)-1-piperazineethanesulfonic acid) buffer at pH 8.0.

[3] = test system: lipase; test: Lipase activity retention in detergent use solution (4000 ppm, 5 GPG water; p-nitrophenyl valerate, TRIS buffer pH 8.0); conditions: base formula
Experimental: as §1, with “activities in the detergents with different phosphonate levels were tested at 4000 ppm in 5 grains per gallon (GPG) water at 120° F. with various time points” left out
as §2, §3, §4

[4] = phosphonate 0.3 wt-%, use solution at 120° F., time 0 min
[5] = phosphonate 0.3 wt-%, use solution at 120° F., time 5 min
[6] = phosphonate 0.3 wt-%, use solution at 120° F., time 10 min
[7] = phosphonate 0.3 wt-%, use solution at 120° F., time 20 min
[8] = phosphonate 0.3 wt-%, use solution at 120° F., time 40 min
[9] = phosphonate 0.3 wt-%, use solution at 120° F., time 60 min
[10] = phosphonate 0.3 wt-%, use solution at 120° F., time 90 min
[11] = phosphonate 0.3 wt-%, use solution at 120° F., time 120 min
[12] = phosphonate 0.3 wt-%, use solution at 120° F., time 150 min
[13] = phosphonate 0.3 wt-%, use solution at 120° F., time 180 min
[14] = phosphonate 0.3 wt-%, use solution at 120° F., time 210 min
[15] = phosphonate 0.3 wt-%, use solution at 120° F., time 240 min
[16] = phosphonate 0.6 wt-%, use solution at 120º F., time 0 min
[17] = phosphonate 0.6 wt-%, use solution at 120º F., time 5 min
[18] = phosphonate 0.6 wt-%, use solution at 120º F., time 10 min
[19] = phosphonate 0.6 wt-%, use solution at 120º F., time 20 min
[20] = phosphonate 0.6 wt-%, use solution at 120º F., time 40 min
[21] = phosphonate 0.6 wt-%, use solution at 120º F., time 60 min
[22] = phosphonate 0.6 wt-%, use solution at 120º F., time 90 min
[23] = phosphonate 0.6 wt-%, use solution at 120º F., time 120 min
[24] = phosphonate 0.6 wt-%, use solution at 120º F., time 150 min
[25] = phosphonate 0.6 wt-%, use solution at 120º F., time 180 min
[26] = phosphonate 0.6 wt-%, use solution at 120º F., time 210 min
[27] = phosphonate 0.6 wt-%, use solution at 120º F., time 240 min

Monoethanolamine phosphonate [MEAP]
Stability (effects on enzyme activity) [1]: Yes
Relative Amylase Enzyme Activity [2, 4]: 100.00%
Relative Amylase Enzyme Activity [2, 5]: 100.65%
Relative Amylase Enzyme Activity [2, 6]: 102.68%
Relative Amylase Enzyme Activity [2, 7]: 102.07%
Relative Amylase Enzyme Activity [2, 8]: 91.36%
Relative Amylase Enzyme Activity [2, 9]: 93.57%
Relative Amylase Enzyme Activity [2, 10]: 94.85%
Relative Amylase Enzyme Activity [2, 11]: 102.84%
Relative Amylase Enzyme Activity [2, 12]: 93.01%
Relative Amylase Enzyme Activity [2, 13]: 96.46%
Relative Amylase Enzyme Activity [2, 14]: 100.65%
Relative Amylase Enzyme Activity [2, 15]: 103.40%
Relative Amylase Enzyme Activity [2, 16]: 100.00%
Relative Amylase Enzyme Activity [2, 17]: 95.91%
Relative Amylase Enzyme Activity [2, 18]: 99.98%
Relative Amylase Enzyme Activity [2, 19]: 90.83%
Relative Amylase Enzyme Activity [2, 20]: 91.75%
Relative Amylase Enzyme Activity [2, 21]: 97.99%
Relative Amylase Enzyme Activity [2, 22]: 99.08%
Relative Amylase Enzyme Activity [2, 23]: 97.36%
Relative Amylase Enzyme Activity [2, 24]: 101.28%
Relative Amylase Enzyme Activity [2, 25]: 94.70%
Relative Amylase Enzyme Activity [2, 26]: 99.20%
Relative Amylase Enzyme Activity [2, 27]: 99.15%
Relative Amylase Enzyme Activity ([2]; phosphonate at 0.1% elemental phosphorus level, use solution at 120º F., time 0 min): 100.00%
Relative Amylase Enzyme Activity ([2]; phosphonate at 0.1% elemental phosphorus level, use solution at 120º F., time 5 min): 95.47%
Relative Amylase Enzyme Activity ([2]; phosphonate at 0.1% elemental phosphorus level, use solution at 120º F., time 10 min): 112.93%
Relative Amylase Enzyme Activity ([2]; phosphonate at 0.1% elemental phosphorus level, use solution at 120º F., time 20 min): 117.67%
Relative Amylase Enzyme Activity ([2]; phosphonate at 0.1% elemental phosphorus level, use solution at 120º F., time 40 min): 122.41%
Relative Amylase Enzyme Activity ([2]; phosphonate at 0.1% elemental phosphorus level, use solution at 120º F., time 60 min): 125.44%
Relative Amylase Enzyme Activity ([2]; phosphonate at 0.1% elemental phosphorus level, use solution at 120º F., time 90 min): 127.99%
Relative Amylase Enzyme Activity ([2]; phosphonate at 0.1% elemental phosphorus level, use solution at 120º F., time 120 min): 123.91%
Relative Amylase Enzyme Activity ([2]; phosphonate at 0.1% elemental phosphorus level, use solution at 120º F., time 150 min): 120.88%
Relative Amylase Enzyme Activity ([2]; phosphonate at 0.1% elemental phosphorus level, use solution at 120º F., time 180 min): 113.29%
Relative Amylase Enzyme Activity ([2]; phosphonate at 0.1% elemental phosphorus level, use solution at 120º F., time 210 min): 112.78%
Relative Amylase Enzyme Activity ([2]; phosphonate at 0.1% elemental phosphorus level, use solution at 120º F., time 240 min): 118.72%
Relative Lipase Enzyme Activity [3, 4]: 100.00%
Relative Lipase Enzyme Activity [3, 5]: 84.99%
Relative Lipase Enzyme Activity [3, 6]: 78.55%
Relative Lipase Enzyme Activity [3, 7]: 58.36%
Relative Lipase Enzyme Activity [3, 8]: 39.07%
Relative Lipase Enzyme Activity [3, 9]: 31.84%
Relative Lipase Enzyme Activity [3, 10]: 26.97%
Relative Lipase Enzyme Activity [3, 11]: 22.23%
Relative Lipase Enzyme Activity [3, 12]: 20.19%
Relative Lipase Enzyme Activity [3, 13]: 19.50%
Relative Lipase Enzyme Activity [3, 14]: 16.46%
Relative Lipase Enzyme Activity [3, 15]: 15.76%
Relative Lipase Enzyme Activity [3, 16]: 100.00%
Relative Lipase Enzyme Activity [3, 17]: 95.37%
Relative Lipase Enzyme Activity [3, 18]: 90.69%
Relative Lipase Enzyme Activity [3, 19]: 83.63%
Relative Lipase Enzyme Activity [3, 20]: 72.89%
Relative Lipase Enzyme Activity [3, 21]: 69.90%
Relative Lipase Enzyme Activity [3, 22]: 65.92%
Relative Lipase Enzyme Activity [3, 23]: 59.18%
Relative Lipase Enzyme Activity [3, 24]: 53.85%
Relative Lipase Enzyme Activity [3, 25]: 51.72%
Relative Lipase Enzyme Activity [3, 26]: 47.03%
Relative Lipase Enzyme Activity [3, 27]: 42.96%
Relative Lipase Enzyme Activity ([3]; phosphonate at 0.1% elemental phosphorus, at 120º F. or at room temperature (as titled), time 0 min): 100.00%
Relative Lipase Enzyme Activity ([3]; phosphonate at 0.1% elemental phosphorus, at 120º F. or at room temperature (as titled), time 5 min): 81.36%
Relative Lipase Enzyme Activity ([3]; phosphonate at 0.1% elemental phosphorus, at 120º F. or at room temperature (as titled), time 10 min): 84.98%
Relative Lipase Enzyme Activity ([3]; phosphonate at 0.1% elemental phosphorus, at 120º F. or at room temperature (as titled), time 20 min): 71.62%
Relative Lipase Enzyme Activity ([3]; phosphonate at 0.1% elemental phosphorus, at 120º F. or at room temperature (as titled), time 40 min): 57.03%
Relative Lipase Enzyme Activity ([3]; phosphonate at 0.1% elemental phosphorus, at 120º F. or at room temperature (as titled), time 60 min): 47.80%
Relative Lipase Enzyme Activity ([3]; phosphonate at 0.1% elemental phosphorus, at 120º F. or at room temperature (as titled), time 90 min): 41.02%
Relative Lipase Enzyme Activity ([3]; phosphonate at 0.1% elemental phosphorus, at 120º F. or at room temperature (as titled), time 120 min): 31.46%
Relative Lipase Enzyme Activity ([3]; phosphonate at 0.1% elemental phosphorus, at 120º F. or at room temperature (as titled), time 150 min): 28.32%
Relative Lipase Enzyme Activity ([3]; phosphonate at 0.1% elemental phosphorus, at 120º F. or at room temperature (as titled), time 180 min): 20.93%
Relative Lipase Enzyme Activity ([3]; phosphonate at 0.1% elemental phosphorus, at 120º F. or at room temperature (as titled), time 210 min): 23.04%
Relative Lipase Enzyme Activity ([3]; phosphonate at 0.1% elemental phosphorus, at 120º F. or at room temperature (as titled), time 240 min): 20.87%
